From patent US20190315806A1, “POLYMYXIN DERIVATIVE, PREPARATION METHOD AND APPLICATION THEREOF” (priority 2016, published 2019)
≈ marks a conversion by molar mass, not a printed value. Where a SMILES comes first, the peptide text is derived from it. Bridges are numbered along the chain shown (N, C = ends). [ ]: non-standard residue; d: D form. The star is where a group is joined. dPhe(3-Cl) = N[C@H](Cc1cccc(Cl)c1)C(=O)O; X2 = CC[C@H](C)CCCCC(=O)*; dDab = NCC[C@@H](N)C(=O)O; Octanoyl = CCCCCCCC(=O)*; Dab = NCC[C@H](N)C(=O)O; Nva = CCC[C@H](N)C(=O)O; X6 = CCCC(=O)CC(=O)*; X8 = CN(C)CCCCC(=O)*; X4 = COCCCCCC(=O)*

Columns and labels:
Format in all cases: cell-based
[1] = tested on: Acinetobacter baumannii ATCC 19606; details: ATCC 19606
Method: (§1) The minimum inhibitory concentration (MIC) was determined by means of dish double dilution method using a Multipoint inoculator according to the CLSI recommended method. The compounds of the present invention (for example, the compounds prepared in the Embodiments) and the reference substances were diluted twice each time with the broth into various desired concentrations, and appropriate amounts were added to the dishes. Agar medium is melted, and then quantitatively injected into the dish containing the drug solution, and mixed. The final concentrations of the compounds of the invention (e.g., the compounds prepared in the Embodiments) and the controls were 0.03, 0.06, 0.125, 0.25 . . . 128 μg/mL, respectively. The test bacteria were cultured overnight with nutrient broth, brain heart infusion or HTM broth. During the tests, the bacterial solutions were diluted appropriately, and the test bacteria (inoculation amount 10^4 CFU/dot) were inoculated on the surface of the drug-containing agar by a multi-point inoculator. After drying, the bacterial was incubated for 18 to 24 hours at 35° C., the results were observed, the minimum concentrations of the compounds of the present invention (for example, the compounds prepared in the Embodiments) and the controls contained in the dishes with no growth of colonies were MICs.
(§2) The strains used in the antibacterial activity experiments were from the American Type Culture Collection (ATCC) and clinical isolates.
(§3) The strains used for the experiments on antibacterial activity included Escherichia coli ATCC 25922, Klebsiella pneumoniae ATCC BAA-2146 (NDM-1), Pseudomonas aeruginosa ATCC 27853, Acinetobacter baumannii ATCC 19606 and Staphylococcus epidermidis ATCC 12228.
(§4) Tested samples: polymyxin derivatives prepared according to the technical scheme of the present invention;
(§5) Controls: polymyxin B sulfate and colistin (polymyxin E sulfate).

[2] = tested on: Escherichia coli ATCC 25922; details: ATCC 25922
Method: as §1, §2, §3, §4, §5

[3] = tested on: Pseudomonas aeruginosa ATCC 27853; details: ATCC 27853
Method: as §1, §2, §3, §4, §5

[4] = tested on: Staphylococcus epidermidis ATCC 12228; details: ATCC 12228
Method: as §1, §2, §3, §4, §5

[5] = tested on: Klebsiella pneumoniae ATCC BAA-2146 (NDM-1); assay: Antibacterial activity, MIC by dish double dilution method; details: ATCC BAA-2146
Method: as §1, §2, §3, §4, §5

| SMILES | MIC A. baumannii ATCC 19606 [1] [µg/mL] | MIC E. coli ATCC 25922 [2] [µg/mL] | MIC P. aeruginosa ATCC 27853 [3] [µg/mL] | MIC S. epidermidis ATCC 12228 [4] [µg/mL] | MIC K. pneumoniae ATCC BAA-2146 (NDM-1) [5] [µg/mL] |
| --- | --- | --- | --- | --- | --- |
| CCCCCCCC(=O)N[C@@H](CCN)C(=O)N[C@H](C(=O)N[C@H](CO)C(=O)N[C@H]1CCNC(=O)[C@H]([C@@H](C)O)NC(=O)[C@H](CCN)NC(=O)[C@H](CCN)NC(=O)[C@H]([C@@H](C)O)NC(=O)[C@@H](CC(C)C)NC(=O)[C@H](CCN)NC1=O)[C@@H](C)O [Compound 60, octanoyl-Dab-Thr-D-Ser-ring(4-10)[Dab-Dab-D-Leu-Thr-Dab-Dab-Thr]] (Octanoyl-[Dab]T[dS][Dab][Dab][dL]T[Dab][Dab]T; lactam 4-C) | 0.06 (≈ 0.0531 µM) | 0.12 (≈ 0.106 µM) | 2 (≈ 1.77 µM) | >128 | 0.5 (≈ 0.442 µM) |
| CCCCCCCC(=O)N[C@@H](CCN)C(=O)N[C@H](C(=O)N[C@@H](CO)C(=O)N[C@H]1CCNC(=O)[C@H]([C@@H](C)O)NC(=O)[C@H](CCN)NC(=O)[C@H](CCN)NC(=O)[C@H]([C@@H](C)O)NC(=O)[C@@H](CC(C)C)NC(=O)[C@H](CCN)NC1=O)[C@@H](C)O [Compound 111, octanoyl-Dab-Thr-Ser-ring(4-10)[Dab-Dab-D-Leu-Thr-Dab-Dab-Thr]] (Octanoyl-[Dab]TS[Dab][Dab][dL]T[Dab][Dab]T; lactam 4-C) | 1 (≈ 0.885 µM) | 0.5 (≈ 0.442 µM) | 1 (≈ 0.885 µM) | 64 (≈ 56.6 µM) | 0.5 (≈ 0.442 µM) |
| CCOc1ccc(C[C@H]2NC(=O)[C@H](CCN)NC(=O)[C@@H](NC(=O)[C@H](CCN)NC(=O)[C@@H](NC(=O)[C@H](CCN)NC(=O)CCCC[C@@H](C)CC)[C@@H](C)O)CCNC(=O)[C@H]([C@@H](C)O)NC(=O)[C@H](CCN)NC(=O)[C@H](CCN)NC(=O)[C@H](CC(C)C)NC2=O)cc1 [Compound 25, (S)-6-methyloctanoyl-Dab-Thr-Dab-ring(4-10)[Dab-Dab-D-Phe(4-OEt)-Lue-Dab-Dab-Thr]] (X2-[Dab]T[Dab][Dab][Dab][dY](Et)L[Dab][Dab]T; lactam 4-C) | 2 (≈ 1.6 µM) | 1 (≈ 0.802 µM) | 2 (≈ 1.6 µM) | 16 (≈ 12.8 µM) | 2 (≈ 1.6 µM) |
| CCCCCCCC(=O)N[C@@H](CCN)C(=O)N[C@H](C(=O)N[C@@H](CCN)C(=O)N[C@H]1CCNC(=O)[C@H]([C@@H](C)O)NC(=O)[C@H](CCN)NC(=O)[C@H](CCN)NC(=O)[C@H](CCC)NC(=O)[C@@H](CC(C)C)NC(=O)[C@H](CCN)NC1=O)[C@@H](C)O [Compound 81, octanoyl-Dab-Thr-Dab-ring(4-10)[Dab-Dab-D-Leu-Nva-Dab-Dab-Thr]] (Octanoyl-[Dab]T[Dab][Dab][Dab][dL][Nva][Dab][Dab]T; lactam 4-C) | 1 (≈ 0.876 µM) | 0.5 (≈ 0.438 µM) | 1 (≈ 0.876 µM) | >128 | 1 (≈ 0.876 µM) |
| CC[C@H](C)CCCCC(=O)N[C@@H](CCN)C(=O)N[C@H](C(=O)N[C@@H](CCN)C(=O)N[C@H]1CCNC(=O)[C@H]([C@@H](C)O)NC(=O)[C@H](CCN)NC(=O)[C@H](CCN)NC(=O)[C@H](CC(C)C)NC(=O)[C@@H](Cc2ccc(O)cc2)NC(=O)[C@H](CCN)NC1=O)[C@@H](C)O [Compound 12, (S)-6-methyloctanoyl-Dab-Thr-Dab-ring(4-10)[Dab-Dab-D-Tyr-Lue-Dab-Dab-Thr]] (X2-[Dab]T[Dab][Dab][Dab][dY]L[Dab][Dab]T; lactam 4-C) | 2 (≈ 1.64 µM) | 2 (≈ 1.64 µM) | 1 (≈ 0.82 µM) | 128 (≈ 105 µM) | 2 (≈ 1.64 µM) |
| CC[C@H](C)CCCCC(=O)N[C@@H](CCN)C(=O)N[C@H](C(=O)N[C@@H](CCN)C(=O)N[C@H]1CCNC(=O)[C@H]([C@@H](C)O)NC(=O)[C@H](CCN)NC(=O)[C@H](CCN)NC(=O)[C@H]([C@@H](C)O)NC(=O)[C@@H](CC(C)C)NC(=O)[C@H](CCN)NC1=O)[C@@H](C)O [Compound 102, (S)-6-methyloctanoyl-Dab-Thr-Dab-ring(4-10)[Dab-Dab-D-Leu-Thr-Dab-Dab-Thr]] (X2-[Dab]T[Dab][Dab][Dab][dL]T[Dab][Dab]T; lactam 4-C) | 0.5 (≈ 0.432 µM) | 1 (≈ 0.864 µM) | 1 (≈ 0.864 µM) | >128 | 0.25 (≈ 0.216 µM) |
| CCCCCCCC(=O)N[C@@H](CCN)C(=O)N[C@H](C(=O)N[C@H](CCN)C(=O)N[C@H]1CCNC(=O)[C@H]([C@@H](C)O)NC(=O)[C@H](CCN)NC(=O)[C@H](CCN)NC(=O)[C@H]([C@@H](C)O)NC(=O)[C@@H](CC(C)C)NC(=O)[C@H](CCN)NC1=O)[C@@H](C)O [Compound 32, octanoyl-Dab-Thr-D-Dab-ring(4-10)[Dab-Dab-D-Leu-Thr-Dab-Dab-Thr]] (Octanoyl-[Dab]T[dDab][Dab][Dab][dL]T[Dab][Dab]T; lactam 4-C) | 0.5 (≈ 0.437 µM) | 0.5 (≈ 0.437 µM) | 1 (≈ 0.875 µM) | >128 | 0.5 (≈ 0.437 µM) |

More lines, now with the values ahead:

| MIC A. baumannii ATCC 19606 [1] [µg/mL] | MIC E. coli ATCC 25922 [2] [µg/mL] | MIC P. aeruginosa ATCC 27853 [3] [µg/mL] | MIC S. epidermidis ATCC 12228 [4] [µg/mL] | MIC K. pneumoniae ATCC BAA-2146 (NDM-1) [5] [µg/mL] | SMILES |
| --- | --- | --- | --- | --- | --- |
| 2 (≈ 1.68 µM) | 1 (≈ 0.839 µM) | 1 (≈ 0.839 µM) | >128 | 4 (≈ 3.36 µM) | COCCCCCC(=O)N[C@@H](CCN)C(=O)N[C@H](C(=O)N[C@@H](CCN)C(=O)N[C@H]1CCNC(=O)[C@H]([C@@H](C)O)NC(=O)[C@H](CCN)NC(=O)[C@H](CCN)NC(=O)[C@H](CC(C)C)NC(=O)[C@@H](Cc2ccccc2)NC(=O)[C@H](CCN)NC1=O)[C@@H](C)O [Compound 1, 6-methoxycaproyl-Dab-Thr-Dab-ring(4-10)[Dab-Dab-D-Phe-Lue-Dab-Dab-Thr]] (X4-[Dab]T[Dab][Dab][Dab][dF]L[Dab][Dab]T; lactam 4-C) |
| 0.5 (≈ 0.425 µM) | 0.5 (≈ 0.425 µM) | 1 (≈ 0.85 µM) | 64 (≈ 54.4 µM) | 1 (≈ 0.85 µM) | CCCCCCCC(=O)N[C@@H](CCN)C(=O)N[C@H](C(=O)N[C@@H](CO)C(=O)N[C@H]1CCNC(=O)[C@H]([C@@H](C)O)NC(=O)[C@H](CCN)NC(=O)[C@H](CCN)NC(=O)[C@H](CC(C)C)NC(=O)[C@@H](Cc2ccccc2)NC(=O)[C@H](CCN)NC1=O)[C@@H](C)O [Compound 54, octanoyl-Dab-Thr-Ser-ring(4-10)[Dab-Dab-D-Phe-Leu-Dab-Dab-Thr]] (Octanoyl-[Dab]TS[Dab][Dab][dF]L[Dab][Dab]T; lactam 4-C) |
| 8 (≈ 6.81 µM) | 0.5 (≈ 0.425 µM) | 2 (≈ 1.7 µM) | 128 (≈ 109 µM) | 2 (≈ 1.7 µM) | CCCC(=O)CC(=O)N[C@@H](CCN)C(=O)N[C@H](C(=O)N[C@@H](CCN)C(=O)N[C@H]1CCNC(=O)[C@H]([C@@H](C)O)NC(=O)[C@H](CCN)NC(=O)[C@H](CCN)NC(=O)[C@H](CC(C)C)NC(=O)[C@@H](Cc2ccccc2)NC(=O)[C@H](CCN)NC1=O)[C@@H](C)O [Compound 3, 3-oxocaproyl-Dab-Thr-Dab-ring(4-10)[Dab-Dab-D-Phe-Lue-Dab-Dab-Thr]] (X6-[Dab]T[Dab][Dab][Dab][dF]L[Dab][Dab]T; lactam 4-C) |
| 8 (≈ 6.72 µM) | 16 (≈ 13.4 µM) | 1 (≈ 0.84 µM) | >128 | 128 (≈ 108 µM) | CC(C)C[C@@H]1NC(=O)[C@@H](Cc2ccccc2)NC(=O)[C@H](CCN)NC(=O)[C@@H](NC(=O)[C@H](CCN)NC(=O)[C@@H](NC(=O)[C@H](CCN)NC(=O)CCCCN(C)C)[C@@H](C)O)CCNC(=O)[C@H]([C@@H](C)O)NC(=O)[C@H](CCN)NC(=O)[C@H](CCN)NC1=O [Compound 2, N,N-dimethylaminovaleryl-Dab-Thr-Dab-ring(4-10)[Dab-Dab-D-Phe-Lue-Dab-Dab-Thr]] (X8-[Dab]T[Dab][Dab][Dab][dF]L[Dab][Dab]T; lactam 4-C) |
| 0.5 (≈ 0.404 µM) | 1 (≈ 0.808 µM) | 2 (≈ 1.62 µM) | 4 (≈ 3.23 µM) | 2 (≈ 1.62 µM) | CC[C@H](C)CCCCC(=O)N[C@@H](CCN)C(=O)N[C@H](C(=O)N[C@@H](CCN)C(=O)N[C@H]1CCNC(=O)[C@H]([C@@H](C)O)NC(=O)[C@H](CCN)NC(=O)[C@H](CCN)NC(=O)[C@H](CC(C)C)NC(=O)[C@@H](Cc2cccc(Cl)c2)NC(=O)[C@H](CCN)NC1=O)[C@@H](C)O [Compound 19, (S)-6-methyloctanoyl-Dab-Thr-Dab-ring(4-10)[Dab-Dab-D-Phe(3-Cl)-Lue-Dab-Dab-Thr]] (X2-[Dab]T[Dab][Dab][Dab][dPhe(3-Cl)]L[Dab][Dab]T; lactam 4-C) |
